In patent publication US20220031690A1, “ANTI-NEURODEGENERATIVE DISEASE AGENT” (Hayashibara Co., Ltd., priority 2018, published 2022):

Assays:
PC12-HS cells [1] = assay: Evaluation method B: neurite-outgrowth promoting activity in the presence of NGF; assay type: cell-based, rat; settings: for Action on PC12-HS neurite-outgrowth promotion (500 ng/ml) / Neurite-outgrowth rate (%): NGF 10 ng/ml; for Action on PC12-HS neurite-outgrowth promotion (500 ng/ml): 3 days, class of neurite-outgrowth rate; for neurite-outgrowth promoting activity (in words): 200 and 1,000 nM, comment on Table 2
Excerpt: (§1) As a model of the nerve cell, the NGF (nerve growth factor) highly sensitive strain of PC12 cell derived from the rat adrenal pheochromocytoma (hereinafter referred to as “PC12-HS cell”; JCRB cell bank, National Research and Development Institute of Health and Nutrition), which has been widely used as a suitable model for research on human neurodegenerative disease, was used. As the test compound, […] of trimethine cyanine dye compounds; NK-5 (Chemical formula 2), NK-36 (Chemical formula 3), NK-44 (Chemical formula 5) and dye compounds represented by Chemical formulae 12 to 18, and NK-6 (Chemical formula 7), which is a monomethine cyanine dye, were selected. In addition, two kinds of ethylene cross-linked dyes (Chemical formulae 19 and 20), 15 kinds of monomethine cyanine dyes (Chemical formulae 21 to 35), and seven kinds of trimethine cyanine dyes (Chemical formulae 36 to 42), which were expected to have a good neurocyte growth acceleration activity and/or neurite-outgrowth promoting activity in the screening disclosed in Patent literature 6, were also re-evaluated for comparison. The Chemical formulae 12 to 42 are shown below.
(§2) The cyanine dye compounds subjected to the test (purity 97% by mass or more, synthesized by Hayashibara Co., Ltd., Okayama, Japan) were individually dissolved in DMSO (product number “D8418”, commercialized by SIGMA Corporation) at a concentration of 5 mg/ml, and the solutions were then filtered through DMSO-resistant membrane (“Millex-LGS LLG025SS”, commercialized by Millipore Corporation) and stored at 25° C. in a dark condition. At the time of use, they were further diluted with Dulbecco's Medium (hereinafter, abbreviated as “D-MEM medium”, commercialized by Nissui Pharmaceutical Co., Ltd.) supplemented by 10% by volume of fetal bovine serum (FBS), and subjected to the test.
As in the case of evaluation of neurocyte growth accelerating activity (Evaluation method A), 50 μl/well of each test compound solution, prepared by diluting with the culture medium to give a final concentration of 500 ng/ml, and the culture medium containing 20 ng/ml of mouse NGF (mouse derived, final concentration 10 ng/ml, commercialized by Chemicon International, Inc., CA, USA) (50 μl/well) were added to the precultured PC12-HS cells in each well, and then cultured for three days. Culture medium was removed on day 3 of culture, and cells were fixed by adding 100 μl/well of 10% by volume of glutaraldehyde and standing for 20 minutes at room temperature. As a negative control, PC12-HS cells, cultured for three days with culture medium, were fixed with glutaraldehyde similarly as above. Fixed cells were observed under a microscope to assess the neurite-outgrowth. The neurite-outgrowth rate (%) was determined by observing the cells using a microscope by adjusting the magnitude to give about 100 cells in one visual field, counting the number of cells having neurites twice or more in length of the cell body (major axis), dividing by the total number of cells in the same visual field, and multiplying by 100. Measurements were carried out at three points for each test compound. […] In this experiment, the neurite-outgrowth rate was 5% or less when NGF was added (final concentration 10 ng/ml) without the addition of the test compound.
The method was based on Experiment 1-1, except the concentrations of the test compounds were set to three doses of 40 nM, 200 nM and 1,000 nM for evaluation method A (neurocyte growth accelerating effect), and two doses of 200 nM and 1,000 nM for evaluation method B (neurite outgrowth promoting effect). Measurements were performed in triplicate for each concentration of each test compound in both evaluation methods A and B. The result of the evaluation method A was expressed as a cell proliferation rate (%) by determined a relative percentage (%) when the value of the negative control to which the test compound was not added, was regarded as 100%. […]

PC12-HS cells [2] = assay: Evaluation method A: neurocyte growth acceleration activity (Alamar blue); assay type: cell-based, rat; settings: for Action on PC12-HS growth acceleration (50 ng/ml): 3 days culture, class of cell proliferation rate vs negative control = 100%; for Cell proliferation rate (%): negative control = 100%; for neurocyte growth acceleration activity (in words): 40, 200 and 1,000 nM, comment on Table 2
Excerpt: as §1, §2
PC12-HS cells were subjected to tests after frozen stock cultured cells were thawed and cultured with a D-MEM medium supplemented with 10% by volume of FBS (Hereinafter, when the term “culture” is simply used, it means that the cells are statically cultured in an incubator controlled at 37° C. under 5% by volume of CO2 conditions). Cells used in the test were collected using 0.25% by weight of trypsin solution, then diluted with a D-MEM medium supplemented with 10% by volume of FBS (hereinafter referred to as “culture medium”), seeded into collagen-coated 96-well plates (commercialized by Falcon, Tokyo, Japan, “Microtest Plate, Cell Culture, Flat Bottom”) to obtain 5×10^3 cells/100 μl/well, and cultured for 24 hours (hereinafter referred to as “pre-culture”). Then, the above test samples were diluted with a culture medium, and 100 μl of diluted solution of the test compounds were added to each well so that the final concentration of the test compounds in the wells became 50 ng/ml, and the cells were cultured for another three days. On day 3, the cultures supernatant was removed from each well, 200 μl of culture medium containing 10% by volume of Alamar blue reagents (commercialized by Trek Diagnostic Systems Inc., Ohio, USA) were added to each well, and the cells were cultured for 6 hours. After culturing for 6 hours, the cells were measured for fluorescent intensity at a wavelength of 544-590 nm by “FlexStation 3”, a product name of a fluorescent plate reader (commercialized by Japan Molecular Devices Corporation, Tokyo, Japan). […] Measurements were performed for each test compound in triplicate, and the mean values were shown.
The method was based on Experiment 1-1, except the concentrations of the test compounds were set to three doses of 40 nM, 200 nM and 1,000 nM for evaluation method A (neurocyte growth accelerating effect), and two doses of 200 nM and 1,000 nM for evaluation method B (neurite outgrowth promoting effect). […]

| SMILES | Action on PC12-HS neurite-outgrowth promotion (500 ng/ml) (PC12-HS cells [1]) | Action on PC12-HS growth acceleration (50 ng/ml) (PC12-HS cells [2]) | further results |
| --- | --- | --- | --- |
| CCN1C(=Cc2sc3ccccc3[n+]2CC)Sc2ccccc21.[Br-] [NK-1560] | ◯ (When the mean neurite-outgrowth rate was 25 to 44%, it was judged to be equivalent to the positive control NK-4 (“circle”)) |  |  |
| Cc1ccc2c(c1)SC(=Cc1sc3cc(C)ccc3[n+]1C)N2C.[I-] [NK-594] | ◯ (When the mean neurite-outgrowth rate was 25 to 44%, it was judged to be equivalent to the positive control NK-4 (“circle”)) |  |  |
| O=C1/C(=C\C=C\c2sc3ccccc3c2O)Sc2ccccc21 [NK-1741] |  | ◯ (the relative value of 130% to 169% was judged to be equivalent to NK-4 (“circle”)) |  |
| CCCCN1C(C)=CSC1=Cc1scc(C)[n+]1CCCC.[I-] [NK-399] | ◯ (When the mean neurite-outgrowth rate was 25 to 44%, it was judged to be equivalent to the positive control NK-4 (“circle”)) |  |  |
| CCCCCCCN1C(C)=CSC1=Cc1scc(C)[n+]1CCCCCCC.[I-] [NK-266] | ◯ (When the mean neurite-outgrowth rate was 25 to 44%, it was judged to be equivalent to the positive control NK-4 (“circle”)) |  |  |
| CCN1C(=Cc2oc3ccccc3[n+]2CC)Sc2ccccc21.[I-] [NK-1049] | ◯ (When the mean neurite-outgrowth rate was 25 to 44%, it was judged to be equivalent to the positive control NK-4 (“circle”)) |  |  |
| CCN1C(=Cc2oc3ccccc3[n+]2CC)Oc2ccccc21.[I-] [NK-863] | ◯ (When the mean neurite-outgrowth rate was 25 to 44%, it was judged to be equivalent to the positive control NK-4 (“circle”)) |  |  |
| CC1=NN(c2ccccc2)C(=O)/C1=C\c1ccccc1 [NK-1076] |  | ◯ (the relative value of 130% to 169% was judged to be equivalent to NK-4 (“circle”)) |  |
| O=C1/C(=C\c2ccccc2)SC(=S)N1c1ccccc1 [NK-1075] |  | ◯ (the relative value of 130% to 169% was judged to be equivalent to NK-4 (“circle”)) |  |
| CCN1C(=CC=Cc2cc[n+](CC)c3ccccc23)Oc2ccccc21.[I-] [NK-741] | ◯ (When the mean neurite-outgrowth rate was 25 to 44%, it was judged to be equivalent to the positive control NK-4 (“circle”)) |  |  |
| CN1C(=CC2=[N+](C)c3ccccc3C2(C)C)Sc2ccccc21.[I-] [NK-1570] | ◯ (When the mean neurite-outgrowth rate was 25 to 44%, it was judged to be equivalent to the positive control NK-4 (“circle”)) |  |  |
| COC1C=CC=CC1=CC=CC1=[N+](C)c2ccc3ccccc3c2C1(C)C.Cc1ccc(S(=O)(=O)[O-])cc1 (stereo not shown) [NK-10214] | ⊚ (45% or more was judged to be more potent than NK-4 (“double circle”)) |  | Cell proliferation rate (%) (PC12-HS cells [2]; 1.000 nM): 103.3%; Cell proliferation rate (%) (PC12-HS cells [2]; 40 nM): 109.3%; Cell proliferation rate (%) (PC12-HS cells [2]; 200 nM): 123.1%; neurocyte growth acceleration activity (in words) (PC12-HS cells [2]): slightly weaker activity than NK-6 and NK-36; Neurite-outgrowth rate (%) (PC12-HS cells [1]; 1.000 nM): 48.8%; Neurite-outgrowth rate (%) (PC12-HS cells [1]; 200 nM): 23.6%; neurite-outgrowth promoting activity (in words) (PC12-HS cells [1]): stronger neurite-outgrowth promoting activity than NK-4 |
| CC1=CO/C(=C\C=C\c2occ(C)[n+]2C)N1C.F[P-](F)(F)(F)(F)F [NK-10089] |  | ◯ (the relative value of 130% to 169% was judged to be equivalent to NK-4 (“circle”)) | Cell proliferation rate (%) (PC12-HS cells [2]; 1.000 nM): 91.6%; Cell proliferation rate (%) (PC12-HS cells [2]; 40 nM): 110.6%; Cell proliferation rate (%) (PC12-HS cells [2]; 200 nM): 123.4%; neurocyte growth acceleration activity (in words) (PC12-HS cells [2]): slightly weaker activity than NK-6 and NK-36; Neurite-outgrowth rate (%) (PC12-HS cells [1]; 1.000 nM): 29.3%; Neurite-outgrowth rate (%) (PC12-HS cells [1]; 200 nM): 0.0% |
| CCN1C(C)=CSC1=CC=Cc1scc(C)[n+]1CC.[I-] [NK-67] | ◯ (When the mean neurite-outgrowth rate was 25 to 44%, it was judged to be equivalent to the positive control NK-4 (“circle”)) |  |  |
| CC1=NN(c2ccccc2)C(=O)/C1=C\c1ccc(N(C)C)cc1 [NK-1107] |  | ◯ (the relative value of 130% to 169% was judged to be equivalent to NK-4 (“circle”)) |  |
| CC[n+]1ccccc1C=Cc1ccc(N(C)C)cc1.[I-] [NK-557] | ◯ (When the mean neurite-outgrowth rate was 25 to 44%, it was judged to be equivalent to the positive control NK-4 (“circle”)) |  |  |
| CCN1C(=Cc2ccc3ccccc3[n+]2CC)C=Cc2ccccc21.[Br-] [NK-1046] | ◯ (When the mean neurite-outgrowth rate was 25 to 44%, it was judged to be equivalent to the positive control NK-4 (“circle”)) |  |  |
| O=S(=O)([O-])CCCN1CCSC1=CC=CC1=[N+](CCCS(=O)(=O)[O-])CCS1.[Na+] [NK-3134] |  | ◯ (the relative value of 130% to 169% was judged to be equivalent to NK-4 (“circle”)) | Cell proliferation rate (%) (PC12-HS cells [2]; 1.000 nM): 122.8%; Cell proliferation rate (%) (PC12-HS cells [2]; 40 nM): 103.9%; Cell proliferation rate (%) (PC12-HS cells [2]; 200 nM): 119.6%; neurocyte growth acceleration activity (in words) (PC12-HS cells [2]): slightly weaker activity than NK-6 and NK-36; Neurite-outgrowth rate (%) (PC12-HS cells [1]; 1.000 nM): 18.2%; Neurite-outgrowth rate (%) (PC12-HS cells [1]; 200 nM): 29.4%; neurite-outgrowth promoting activity (in words) (PC12-HS cells [1]): almost equivalent neurite-outgrowth promoting rate to NK-4 |
| CCN1C(=Cc2cc[n+](CC)c3ccccc23)C=Cc2ccccc21.[I-] [NK-276] | ◯ (When the mean neurite-outgrowth rate was 25 to 44%, it was judged to be equivalent to the positive control NK-4 (“circle”)) |  |  |
| CC(=Cc1oc2ccccc2[n+]1C)C=C1Oc2ccccc2N1C.[I-] [NK-1300] | ◯ (When the mean neurite-outgrowth rate was 25 to 44%, it was judged to be equivalent to the positive control NK-4 (“circle”)) |  |  |
| CCN1C(=O)/C(=C\C=C\c2sc(=S)n(CC)c2O)SC1=S [NK-1451] |  | ◯ (the relative value of 130% to 169% was judged to be equivalent to NK-4 (“circle”)) |  |
| CCN1C(=CC=Cc2sc3ccc4ccccc4c3[n+]2CC)Sc2ccc3ccccc3c21.[I-] [NK-382] | ◯ (When the mean neurite-outgrowth rate was 25 to 44%, it was judged to be equivalent to the positive control NK-4 (“circle”)) |  |  |
| CN1C(=CC2=[N+](C)c3ccccc3C2(C)C)Oc2ccccc21.[I-] [NK-1684] | ◯ (When the mean neurite-outgrowth rate was 25 to 44%, it was judged to be equivalent to the positive control NK-4 (“circle”)) |  |  |
